59 compounds from US12583858B2 (Genentech, Inc., priority 2015, dated 2026) can be followed below.

The EC50 is the concentration at which the effect is half-maximal.

This assay deals with T1, TDO2 (Homo sapiens, UniProt P48775).
T1 construct: decreased levels of NFK in SW48 cells (high TDO expressing cells)
T1 sequence (P48775 whole entry): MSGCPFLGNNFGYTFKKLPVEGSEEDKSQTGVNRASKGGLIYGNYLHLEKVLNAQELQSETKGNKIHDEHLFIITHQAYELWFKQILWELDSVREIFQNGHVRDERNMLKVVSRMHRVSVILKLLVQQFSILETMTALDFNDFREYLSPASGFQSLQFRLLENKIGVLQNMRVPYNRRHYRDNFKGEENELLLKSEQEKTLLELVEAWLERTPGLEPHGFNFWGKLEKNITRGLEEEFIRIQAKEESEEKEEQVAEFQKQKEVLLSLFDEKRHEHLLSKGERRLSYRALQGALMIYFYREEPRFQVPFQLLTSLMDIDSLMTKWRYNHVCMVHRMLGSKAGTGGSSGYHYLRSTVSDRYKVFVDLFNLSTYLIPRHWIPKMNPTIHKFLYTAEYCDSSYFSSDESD
Kind of assay: TDO2 cell assay (NFK GreenScreen, SW48 cells). Format: cell-based. Conditions: SW48 cells (high TDO expressing), 200 uM tryptophan, 24 hours; Table 3; read-out: TDO2 Cell Fluor EC50.
For `CCS(=O)(=O)N1CCC2(CCC(C3c4ccccc4-c4cncn43)C2O)CC1` (single isomer, unassigned) [Example 76b], the EC50 is 15 µM. As to `OC(C1CC1)C1c2ccccc2-c2cncn21` (single isomer, unassigned) [Example 52b], the EC50 is 23.7 µM. For the compound `CS(=O)(=O)N1CCC(O)C(C2c3ccccc3-c3cncn32)CC1` (single isomer, unassigned) [Example 92c], the EC50 worked out at 18 µM. With `NC(=O)C1CCC(O)(C2c3ccccc3-c3cncn32)CC1` (single isomer, unassigned) [Example 140d] the figure was 3.5 µM. With `CS(=O)(=O)c1ccc2c(c1)CCC(C1c3ccccc3-c3cncn31)C2O` (single isomer, unassigned) [Example 36b] the figure was 0.058 µM. For the compound `N#Cc1ccc2c(c1)C(O)C(C1c3ccccc3-c3cncn31)CC2` (single isomer, unassigned) [Example 113f], the EC50 worked out at 0.17 µM. Take `CS(=O)(=O)N1CCC2(CC1)CC(C1c3ccccc3-c3cncn31)C2O` (single isomer, unassigned) [Example 179h]: the EC50 worked out at 8.6 µM.

As for `OC1c2cnnn2CCC1C1c2ccccc2-c2cncn21` (single isomer, unassigned) [Example 139a], the EC50 is more than 25 µM. With `CC(C)C(O)C1c2ccc(F)cc2-c2cncn21` (single isomer, unassigned) [Example 135c] the figure was 3 µM; with `OC1COCCC1C1c2cccc(F)c2-c2cncn21` (single isomer, unassigned) [Example 99a], more than 25 µM; with `Nc1ncc2c(n1)CCC(C1c3ccccc3-c3cncn31)C2O` (single isomer, unassigned) [Example 111b], 0.12 µM. With `O[C@@H]1c2nccnc2CC[C@H]1[C@H]1c2ccccc2-c2cncn21` (single isomer, unassigned) [Example 123a] the figure was 24 µM; with `OC1C(C2c3ccccc3-c3cncn32)CC12CCOCC2` (single isomer, unassigned) [Example 57c], 0.4 µM.

For `Cc1ncc2c(n1)CCC(C1c3ccccc3-c3cncn31)C2O` (single isomer, unassigned) [Example 124a], the EC50 was determined as 16 µM. The same measure for `OC1(C2c3ccccc3-c3cncn32)CCOC1` (single isomer, unassigned) [Example 129d]: 2.6 µM; for `OC1CCCCC1C1c2ccccc2-c2cncn21` (single isomer, unassigned) [Example 03d]: 0.036 µM. The same measure for `CC(=O)N1CC[C@H](O)[C@@H]([C@H]2c3ccccc3-c3cncn32)C1` (single isomer, unassigned) [Example 12c]: more than 25 µM; for `OC1CCCCCC1C1c2ccccc2-c2cncn21` (single isomer, unassigned) [Example 115d, 2-(5H-imidazo[5,1-a]isoindol-5-yl)cycloheptan-1-ol]: 0.1 µM. On to `OC1CCCCC1C1c2ccc(F)cc2-c2cncn21` (single isomer, unassigned) [Example 25a], for which the EC50 stood at 0.51 µM. On to `OC1CCOCC1C1c2c(Cl)cccc2-c2cncn21` (single isomer, unassigned) [Example 69a], for which the EC50 is more than 25 µM. On to `CC(C)C(O)C1c2ccccc2-c2cncn21` (single isomer, unassigned) [Example 51b], for which the EC50 was more than 25 µM. On to `CN(C)C(=O)c1ccc2c(c1)CCC(C1c3ccccc3-c3cncn31)C2O` (single isomer, unassigned) [Example 98h], for which the EC50 turned out to be 9.8 µM.

Regarding `O[C@@H]1COCC[C@H]1[C@@H]1c2c(F)cccc2-c2cncn21` (single isomer, unassigned) [Example 120d], the EC50 was more than 25 µM. Regarding `OC1c2[nH]ncc2CCC1C1c2ccccc2-c2cncn21` (single isomer, unassigned) [Example 157e], the EC50 stood at 0.096 µM. The same measure for `CCS(=O)(=O)N1CC(O)C(C2c3ccccc3-c3cncn32)C1` (single isomer, unassigned) [Example 40d]: more than 25 µM; for `C[C@H](O)[C@@H]1c2ccccc2-c2cncn21` [Example 42d, (S)-1-((S)-5H-imidazo[5,1-a]isoindol-5-yl)ethan-1-ol]: 23.7 µM. With `NS(=O)(=O)c1ccc2c(c1)CCC(C1c3ccccc3-c3cncn31)C2O` (single isomer, unassigned) [Example 100c] the figure was 7.4 µM; with `N#Cc1ccc2c(c1)CCC(C1c3ccccc3-c3cncn31)C2O` (single isomer, unassigned) [Example 62g], 14 µM. With `OC(C1c2ccccc2-c2cncn21)C1(F)CC1` (single isomer, unassigned) [Example 154c] the figure was 5.4 µM; with `OC1CC2(CCC2)C1C1c2ccccc2-c2cncn21` (single isomer, unassigned) [Example 67a], 1.2 µM. As to `OC1COCCC1C1c2c(Cl)cccc2-c2cncn21` (single isomer, unassigned) [Example 69-1a], the EC50 is more than 25 µM. Take `CC(C)(C)OC(=O)N1CCC(O)C(C2c3ccccc3-c3cncn32)C1` (single isomer, unassigned) [Example 11c, tert-butyl 4-hydroxy-3-(5H-imidazo[5,1-a]isoindol-5-yl)piperidine-1-carboxylate]: the EC50 was more than 25 µM. On to `O[C@@H]1c2[nH]ncc2CC[C@H]1[C@@H]1c2ccccc2-c2cncn21` (single isomer, unassigned) [Example 157b], for which the EC50 was found to be 22 µM. The same measure for `C[C@@H](O)[C@H]1c2ccccc2-c2cncn21` [Example 42b, (R)-1-((R)-5H-imidazo[5,1-a]isoindol-5-yl)ethan-1-ol]: 11.8 µM; for `O=S(=O)(C1CC1)N1CC[C@@H](O)[C@H]([C@@H]2c3ccccc3-c3cncn32)C1` (single isomer, unassigned) [Example 70c]: more than 25 µM. On to `O[C@@H](C1CCOCC1)[C@H]1c2ccccc2-c2cncn21` (single isomer, unassigned) [Example 138b], for which the EC50 is more than 25 µM. Regarding `CS(=O)(=O)N1CCC(C2c3ccc(F)cc3-c3cncn32)C(O)C1` (single isomer, unassigned) [Example 119c], the EC50 is 0.22 µM.

For the compound `OC1c2cnncc2CCC1C1c2ccccc2-c2cncn21` (single isomer, unassigned) [Example 112c], the EC50 is more than 25 µM. On to `OC1COCCC1C1c2cc(F)ccc2-c2cncn21` (single isomer, unassigned) [Example 75-1b], for which the EC50 was more than 25 µM.

Take `O=S(=O)(C1CC1)N1CC[C@@H]([C@H]2c3ccccc3-c3cncn32)[C@H](O)C1` (single isomer, unassigned) [Example 77a]: the concentration for a half-maximal effect (EC50) was more than 25 µM. For `OC1c2cncnc2CCC1C1c2ccccc2-c2cncn21` (single isomer, unassigned) [Example 94h], the EC50 is more than 25 µM. In the case of `CC1(C)CCCC(C)(C2c3ccccc3-c3cncn32)C1O` (single isomer, unassigned) [Example 90c], the EC50 is 0.057 µM. Turning to `NS(=O)(=O)N1CCC(O)C(C2c3ccccc3-c3cncn32)CC1` (single isomer, unassigned) [Example 101a, 4-hydroxy-5-(5H-imidazo[5,1-a]isoindol-5-yl)azepane-1-sulfonamide], the 50% effective concentration (EC50) was more than 25 µM.

For `N#Cc1cnn2c1C(O)C(C1c3ccccc3-c3cncn31)CC2` (single isomer, unassigned) [Example 156e], the EC50 stood at 0.25 µM. `CC(=O)N1CCC(C2c3ccccc3-c3cncn32)C(O)C1` (single isomer, unassigned) [Example 09d, 1-(3-hydroxy-4-(5H-imidazo[5,1-a]isoindol-5-yl)piperidin-1-yl)ethan-1-one]: the EC50 was more than 25 µM. With `N#Cc1ccc2c(c1)CCC(C1c3ccccc3-c3cncn31)C2O` (single isomer, unassigned) [Example 62e] the figure was 0.52 µM. The same measure for `NS(=O)(=O)N1CCC2(CC1)CC(C1c3ccccc3-c3cncn31)C2O` (single isomer, unassigned) [Example 181e]: 12 µM; for `CC1(C)CCCC(C)(C2c3ccccc3-c3cncn32)C1O` (single isomer, unassigned) [Example 90b]: more than 25 µM. Take `OC1CC2(CC2)C1C1c2ccccc2-c2cncn21` (single isomer, unassigned) [Example 72b]: the EC50 amounted to 0.65 µM.

Regarding `CC1(C)CCCC(C2c3ccccc3-c3cncn32)C1O` (single isomer, unassigned) [Example 24g], the half-maximal effective concentration (EC50) amounted to 0.34 µM. Regarding `CNS(=O)(=O)N1CC[C@@H]([C@H]2c3ccccc3-c3cncn32)[C@H](O)C1` [Example 74b, (3S,4S)-3-hydroxy-4-((S)-5H-imidazo[5,1-a]isoindol-5-yl)-N-methylpiperidine-1-sulfonamide], the EC50 was 0.11 µM.

As for `O[C@@H]1c2cnccc2CC[C@@H]1[C@H]1c2ccccc2-c2cncn21` (single isomer, unassigned) [Example 04d], the EC50 was determined as 20 µM. With `OC1COCCC1C1c2cc(F)ccc2-c2cncn21` (single isomer, unassigned) [Example 75-1c] the figure was 0.11 µM; with `OC1C(C2c3ccccc3-c3cncn32)CC12CCOCC2` (single isomer, unassigned) [Example 57g], 0.21 µM. As for `OC1c2cccn2CCC1C1c2ccccc2-c2cncn21` (single isomer, unassigned) [Example 136d], the EC50 was found to be 15 µM.

Turning to `OC1CCCC1C1c2ccc(F)cc2-c2cncn21` (single isomer, unassigned) [Example 20a], the EC50 is more than 25 µM. With `O[C@@H]1COCC[C@@H]1[C@@H]1c2ccccc2-c2cncn21` [Example 06e, (3S,4R)-4-((R)-5H-imidazo[5,1-a]isoindol-5-yl)tetrahydro-2H-pyran-3-ol] the figure was more than 25 µM; with `OC1(C2c3ccccc3-c3cncn32)CCCC1` (racemic) [Example 55, 1-(5H-imidazo[5,1-a]isoindol-5-yl)cyclopentan-1-ol], 1.6 µM; with `CS(=O)(=O)N1CCC2(CCC(C3c4ccccc4-c4cncn43)C2O)CC1` (single isomer, unassigned) [Example 180d], more than 25 µM.
